Literature values in patent US4794170A (priority 1984, dated 1988).

Experiments:
[1] = tested on: virus B; conditions: chronical hepatitis induced by virus B
[2] = tested on: hepatocytes; conditions: mouse

Molecule | virus replication [1] | hepatic targeting of ara-A [2]
Nc1ncnc2c1ncn2[C@@H]1O[C@H](CO)[C@@H](O)[C@@H]1O [ara-A, adenine-9-beta-D-arabinoside] | inhibit the virus replication | 
Nc1ncnc2c1ncn2[C@@H]1O[C@H](COP(=O)(O)O)[C@@H](O)[C@@H]1O [ara-AMP, adenine-9-beta-D-arabinofuranoside 5'monophosphate] | inhibit the virus replication | 
ara-A-glut-AF: ara-A glutarate bonded to the asialofetuine (AF) through its hydroxysuccinimidic ester |  | pharmacologically active in producing in the mouse a hepatic targeting of ara-A
